Source: patent publication EP0424901A1, “Dihydropyridine derivatives and pharmaceutical compositions” (THE GREEN CROSS CORPORATION, priority 1989, dated 1991)
Structures can show the parent of a compound that is named as a salt. Where two headings read alike, the source gives them in different places.

Tested on: male Wistar rats
Assay: Blood pressure in anesthetized rats after intravenous bolus administration
Type: in vivo
Settings: tail vein bolus; for DBP % change: diastolic blood pressure relative to that before administration (=100%); for DBP % change / SBP % change: mean ± SE, n=4; for SBP % change: systolic blood pressure relative to that before administration (=100%); for ED30: Rattus norvegicus, iv
Experimental: The subject rats anesthetized with pentobarbital-Na (50 mg/kg, i.p.) were fixed at the dorsal position, and the blood pressure was successively recorded on a polygraph via polyethylene catheter inserted in left common carotid artery and piezoelectric transducer. The drug was bolus- administered at a dose of 1 ml/kg through a wing needle dwelled in tail vein.
As the subject animal, male Wistar rats (about 300 g body weight, 4 rats per group) were used.
The test drug was prepared by dissolving 10 mg thereof in 0.3 ml of ethanol and 0.1 ml of Tween 80 and diluting with saline.

[1] = estimated dose necessary for 30% reduction of diastolic blood pressure, read-out: DBP ED30
[2] = estimated dose necessary for 30% reduction of systolic blood pressure, read-out: SBP ED30

Row | SMILES | DBP % change (dose 100 µg/kg) [%] | DBP % change (dose 1000 µg/kg) [%] | SBP % change (dose 100 µg/kg) [%] | SBP % change (dose 1000 µg/kg) [%] | ED30 [1] [mg/kg] | ED30 [2] [mg/kg] | DBP % change (dose 30 µg/kg) [%] | DBP % change (dose 300 µg/kg) [%] | SBP % change (dose 30 µg/kg) [%] | SBP % change (dose 300 µg/kg) [%] | DBP % change (dose 10 µg/kg) [%] | SBP % change (dose 10 µg/kg) [%]
1 | COC(=O)C1=C(C)NC(C)=C(C(=O)OCCc2ccc(N3CCN(C(c4ccccc4)c4ccccc4)CC3)cc2)[C@@H]1c1cccc([N+](=O)[O-])c1 [(R)-(-)-compound 3, (R)-(-)-4-(4-benzhydrylpiperadino)phenetyl methyl 1,4-dihydro-2,6-dimethyl-4-(3-nitrophenyl)-3,5-pyridinedicarboxylate hydrochloride] | 94±1 | 91±2 | 93±2 | 93±3 |  |  |  |  |  |  |  | 
2 | COC(=O)C1=C(C)NC(C)=C(C(=O)OCCc2ccc(N3CCN(C(c4ccccc4)c4ccccc4)CC3)cc2)C1c1cccc([N+](=O)[O-])c1 (racemic) [compound 3, reference compound] | 61±2 |  | 76±4 |  | 0.046 | 0.63 | 75±5 | 53±3 | 79±1 | 72±3 |  | 
3 | COC(=O)C1=C(C)NC(C)=C(C(=O)OCCc2ccc(N3CCN(C(c4ccccc4)c4ccccc4)CC3)cc2)[C@H]1c1cccc([N+](=O)[O-])c1 [(S)-(+)-compound 3, (S)-(+)-4-(4-benzhydrylpiperadino)phenetyl methyl 1,4-dihydro-2,6-dimethyl-4-(3-nitrophenyl)-3,5-pyridinedicarboxylate hydrochloride] | 55±4 |  | 71±5 |  | 0.037 | 0.16 | 74±2 |  | 86±3 |  | 89±1 | 86±3
